In patent US20130289047A1, “HETEROARYLTHIO DERIVATIVES AND ANALOGUES” (EPIOMED THERAPEUTICS, INC., priority 2010, published 2013):

Assays:
[1] = target: 5HT7 receptor (Homo sapiens, UniProt P34969); assay: Competitive receptor binding, 5HT7 (radiolabeled LSD); conditions: for inhibition at 0.1 µM: 100 nM, read-out: Percent inhibition of receptor binding at 100 nM, 5HT7 Receptor Binding
Procedure: (§1) A set of compounds were tested for their ability to inhibit binding of a binding ligand to the 5HT1A, 5HT1D, and 5HT7 receptors in a competitive assay. The tested compounds were placed in the assay with either radiolabeled OH-DPAT (which binds the 5HT1A receptor), radiolabeled serotonin (which binds the 5HT1D receptor), or radiolabeled LSD (lysergic acid diethylamide, which binds the 5HT7 receptor).

[2] = target: T1, 5HT1A receptor (Homo sapiens, UniProt P08908); assay: Competitive receptor binding, 5HT1A (radiolabeled OH-DPAT); conditions: for inhibition at 0.1 µM: 100 nM, read-out: Percent inhibition of receptor binding at 100 nM, 5HT1A Receptor Binding
T1 sequence (P08908 1-422): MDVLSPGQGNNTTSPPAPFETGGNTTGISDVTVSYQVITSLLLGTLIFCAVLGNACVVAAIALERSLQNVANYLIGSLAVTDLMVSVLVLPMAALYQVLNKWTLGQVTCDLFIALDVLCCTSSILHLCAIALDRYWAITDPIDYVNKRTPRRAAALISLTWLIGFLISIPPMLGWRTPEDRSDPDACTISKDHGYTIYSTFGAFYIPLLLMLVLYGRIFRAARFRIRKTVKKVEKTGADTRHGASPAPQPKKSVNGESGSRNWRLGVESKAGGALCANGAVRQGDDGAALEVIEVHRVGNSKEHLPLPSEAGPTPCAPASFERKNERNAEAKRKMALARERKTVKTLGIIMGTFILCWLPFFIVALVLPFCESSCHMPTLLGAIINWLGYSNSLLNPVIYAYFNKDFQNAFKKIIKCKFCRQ
Procedure: as §1

[3] = target: 5HT1D receptor (Homo sapiens, UniProt P28221); assay: Competitive receptor binding, 5HT1D (radiolabeled serotonin); conditions: for inhibition at 0.1 µM: 100 nM, read-out: Percent inhibition of receptor binding at 100 nM, 5HT1D Receptor Binding
Procedure: as §1

[4] = tested on: C57 male mice; assay: Condition Avoidance Responding (CAR, active avoidance) model, antipsychotic activity; type: in vivo; conditions: 10 mg/kg subcutaneously 30 minutes before test session; C57 male mice tested 24 hours after training; FIG. 1
Procedure: The Condition Avoidance Responding (CAR, active avoidance) model is used as a test for antipsychotic activity. The disruption of avoidance (increased latency) without disruption of escape (extrapyramidal motor function) is a clinical predictor of compounds with antipsychotic activity. The compound of example 10 above (1-[3-(5-Pyridin-4-yl-[1,3,4]oxadiazol-2-ylsulfanyl)propyl]-4-(3-chlorophenyl)piperazine) was evaluated in this model as follows.
(§2) Training of animals (mice) consisted of 20 trials with variable inter-trial intervals (trained to 80% Avoidance Criteria). After a one-minute acclimation period, the house light and an acoustic 90 dB tone (conditioned stimuli) were presented. A response (crossing to a dark compartment) within 5 seconds ended the trial and the trial was recorded as avoidance response (CAR). […] To avoid shock, animals learn to move from the lighted side of the chamber to the dark side when the cue is presented (avoidance) or moved when the shock is administered (escape). Vehicle or test compounds were administered subcutaneously 30 minutes before the test session.
(§3) C57 male mice were tested 24 hours after being trained as described above.

[5] = tested on: C57 male mice; assay: Condition Avoidance Responding (CAR, active avoidance) model, memory; type: in vivo; conditions: 10 mg/kg subcutaneously 30 minutes before test session; C57 male mice tested 24 hours after training; FIG. 2
Description: The Condition Avoidance Responding (CAR, active avoidance) model, although primarily a test for detecting anti-psychotic activity, includes an element of training and learning (acquisition of memory), and thus can also be used as a model for testing a compound's effects on learning (acquisition of information) and memory (retention of information). A decrease in the latency of an animal's response indicates an enhancement of an animal's memory of the stimulus. The compound of example 12 above (1-[3-(1-Phenyl-1H-tetrazol-5-ylsulfanyl)propyl]-4-(3-chlorophenyl)piperazine) was evaluated in this model as follows.
as §2, §3

5HT1D receptor, sequence (P28221 whole entry): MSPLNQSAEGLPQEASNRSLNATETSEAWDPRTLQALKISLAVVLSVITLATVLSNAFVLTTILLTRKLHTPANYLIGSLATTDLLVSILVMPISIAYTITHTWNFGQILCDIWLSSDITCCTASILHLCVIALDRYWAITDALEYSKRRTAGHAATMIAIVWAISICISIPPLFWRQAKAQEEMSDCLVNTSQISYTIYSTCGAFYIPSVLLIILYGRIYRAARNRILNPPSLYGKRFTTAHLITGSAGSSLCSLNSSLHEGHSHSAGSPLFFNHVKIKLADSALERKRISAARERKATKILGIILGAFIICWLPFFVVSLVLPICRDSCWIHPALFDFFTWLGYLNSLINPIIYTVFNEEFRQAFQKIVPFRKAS
5HT7 receptor, sequence (P34969 whole entry): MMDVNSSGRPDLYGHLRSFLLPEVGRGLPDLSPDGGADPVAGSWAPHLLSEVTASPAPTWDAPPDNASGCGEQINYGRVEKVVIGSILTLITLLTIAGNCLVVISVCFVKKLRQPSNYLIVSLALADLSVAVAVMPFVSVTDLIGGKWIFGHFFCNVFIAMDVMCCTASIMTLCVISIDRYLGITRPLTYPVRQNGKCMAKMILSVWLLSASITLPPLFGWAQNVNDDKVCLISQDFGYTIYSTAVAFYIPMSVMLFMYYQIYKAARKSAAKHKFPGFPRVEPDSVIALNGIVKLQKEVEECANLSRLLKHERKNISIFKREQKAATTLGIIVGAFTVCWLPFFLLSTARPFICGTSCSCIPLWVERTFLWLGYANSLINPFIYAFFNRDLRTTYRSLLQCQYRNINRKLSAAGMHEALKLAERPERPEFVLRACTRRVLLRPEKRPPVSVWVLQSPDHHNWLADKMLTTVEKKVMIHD

Row | Structure (SMILES) | inhibition at 0.1 µM [1] [%] | inhibition at 0.1 µM [2] [%] | inhibition at 0.1 µM [3] [%] | latency in CAR (antipsychotic activity) [4] | latency in CAR (memory) [5] | Percent inhibition of receptor binding at 100 nM, 5HT7 Receptor Binding [1] [%] | Percent inhibition of receptor binding at 100 nM, 5HT1A Receptor Binding [2] [%] | Percent inhibition of receptor binding at 100 nM, 5HT1D Receptor Binding [3] [%]
1 | Cn1ccnc1SCCN1CCN(c2cccc(C(F)(F)F)c2)CC1 [Example 1, 1-[2-(1-Methyl-1H-imidazol-2-ylsulfanyl)ethyl]-4-(3-trifluoromethylphenyl)piperazine] | 63 | 87 | 52 | – | – | – | – | –
2 | FC(F)(F)c1cccc(N2CCN(CCSc3nnc(-c4ccncc4)o3)CC2)c1 [Example 3, 1-[2-(5-Pyridin-4-yl-[1,3,4]oxadiazol-2-ylsulfanyl)ethyl]-4-(3-trifluoromethylphenyl)piperazine] | 25 | 92 | 10 | – | – | – | – | –
3 | Cn1ccnc1SCCCN1CCN(c2cccc(Cl)c2)CC1 [Example 8, 1-[3-(1-Methyl-1H-imidazol-2-ylsulfanyl)propyl]-4-(3-chlorophenyl)piperazine] | 82 | 94 | 50 | – | – | – | – | –
4 | Clc1cccc(N2CCN(CCCSc3nnc(-c4ccncc4)o3)CC2)c1 [Example 10, 1-[3-(5-Pyridin-4-yl-[1,3,4]oxadiazol-2-ylsulfanyl)propyl]-4-(3-chlorophenyl)piperazine] | 8 | 97 | 51 | statistically significant increase in latency | – | – | – | –
5 | Clc1cccc(N2CCN(CCCSc3nnnn3-c3ccccc3)CC2)c1 [Example 12, 1-[3-(1-Phenyl-1H-tetrazol-5-ylsulfanyl)propyl]-4-(3-chlorophenyl)piperazine] | 43 | 75 | 6 | – | statistically significant decrease in latency | – | – | –
6 | Cn1ccnc1SCCCN1CCN(c2nccc3occc23)CC1 [Example 38, 4-{4-[3-(1-Methyl-1H-imidazol-2-ylsulfanyl)propyl]piperazin-1-yl}furo[3,2-c]pyridine] | 81 | 71 | – | – | – | – | – | –
7 | c1ccc(-n2nnnc2SCCCN2CCN(c3nccc4occc34)CC2)cc1 [Example 40, 4-{4-[3-(1-Phenyl-1H-tetrazol-5-ylsulfanyl)propyl]piperazin-1-yl}furo[3,2-c]pyridine] | 67 | 97 | 38 | – | – | – | – | –
8 | c1cc(-c2nnc(SCCCN3CCN(c4nccc5occc45)CC3)o2)ccn1 [Example 42, 4-{4-[3-(5-Pyridin-4-yl-[1,3,4]oxadiazol-2-sulfanyl)propyl]piperazin-1-yl}furo[3,2-c]pyridine] | – | – | – | – | – | 21 | 96 | 65
